These results are taken from PubChem BioAssay (NCI).

Test systems include NCI-H226 lung; ACHN renal; IGROV1 ovarian; RPMI-8226 leukemia; RXF 393 renal; MDA-MB-435; HT29 colon; SK-OV-3 ovarian; DU-145 prostate; SK-MEL-2 melanoma.
Holding throughout (assay): inhibition of tumour cell growth, NCI panel, 48 h

SMILES strings stand for the structures. Values joined by “and” are separate entries in the source; they are usually repeats but may differ in a detail not shown here. Equal entries are not always repeated.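 The compound was tested at five concentrations on cells cultured in 96-well plates, with a 48-hour exposure period. Here, GI50 denotes the concentration required for 50% inhibition of growth. TGI: total growth inhibition.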

For `CCN(CC)CC[n+]1ccc2c(C)c3[nH]c4ccccc4c3c(C)c2c1`, the GI50 was 0.346 µM and 0.529 µM and 0.0944 µM in the assay on NCI-H226 lung; 0.365 µM and 1.21 µM and 0.786 µM with IGROV1 ovarian; less than 0.0471 µM in the assay with RPMI-8226 leukemia; 1.83 µM in the assay with RXF 393 renal; 0.416 µM with HT29 colon; 1.35 µM and 2.62 µM and 3.92 µM in the assay with SK-OV-3 ovarian. Also, in the assay with SK-MEL-2 melanoma, the GI50 is 1.4 µM. In addition, the TGI in the assay on NCI-H226 lung is 1.89 µM and 2.89 µM and 0.693 µM; in the assay with ACHN renal, 32.8 µM; with IGROV1 ovarian it was 3.45 µM and 11.2 µM and 5.33 µM; in the assay with RPMI-8226 leukemia, 4.87 µM and 0.536 µM and 2.95 µM; in the assay on RXF 393 renal it was 8.83 µM and 8.41 µM and 7.26 µM; in the assay with MDA-MB-435 it was 2.14 µM. Further, the TGI in the assay with HT29 colon is 3.82 µM and 4.45 µM and 4.46 µM; with SK-OV-3 ovarian, 6.13 µM and 11.7 µM and 11.4 µM; in the assay with DU-145 prostate, 3.72 µM; in the assay on SK-MEL-2 melanoma it was 1.56 µM and 3.43 µM and 1.29 µM.

As to `CCOC(=O)/C=C(/C(=O)OCC)n1cc(C)c(=O)n(Cc2cn(CCCCOC(C)=O)nn2)c1=O`, the TGI in the assay on NCI-H226 lung is 37.1 µM; in the assay on ACHN renal, 16.7 µM; in the assay with IGROV1 ovarian, 29.6 µM; in the assay with RPMI-8226 leukemia it was 25.6 µM; in the assay with RXF 393 renal it was greater than 100 µM; in the assay on MDA-MB-435 it was 28.4 µM. Moreover, the TGI with HT29 colon was 20.5 µM; in the assay on SK-OV-3 ovarian, greater than 100 µM; in the assay on DU-145 prostate, greater than 100 µM; in the assay on SK-MEL-2 melanoma, 45.1 µM.

On to `C#CCn1c(I)cc2c(c1=O)COC(=O)[C@]2(O)CC`, for which the TGI in the assay on NCI-H226 lung, in the assay on ACHN renal, with IGROV1 ovarian, with RPMI-8226 leukemia, with RXF 393 renal and in the assay on MDA-MB-435 was greater than 100 µM in each case. In addition, the TGI in the assay with HT29 colon, in the assay on SK-OV-3 ovarian, in the assay with DU-145 prostate and in the assay with SK-MEL-2 melanoma was greater than 100 µM in each case.

For `COc1ccc(C2C3=C(COC3=O)Oc3cc4c(cc32)OCO4)cc1OC` (stereo not drawn), the TGI with NCI-H226 lung is greater than 100 µM; in the assay on ACHN renal it was greater than 100 µM; in the assay with IGROV1 ovarian, greater than 100 µM; in the assay on RPMI-8226 leukemia it was greater than 23.5 µM; in the assay on RXF 393 renal, 5.7 µM; in the assay with MDA-MB-435 it was 0.751 µM. Further, the TGI was 13 µM in the assay on HT29 colon, 18.1 µM in the assay on SK-OV-3 ovarian, greater than 67.2 µM with DU-145 prostate and greater than 100 µM in the assay with SK-MEL-2 melanoma.

Consider `CCOP(=O)(OCC)C(c1ccccc1)N(C(=O)NC(F)(F)F)c1ccc(C)cc1` (stereo not drawn), for which the TGI in the assay with NCI-H226 lung, with ACHN renal, in the assay on IGROV1 ovarian, in the assay with RPMI-8226 leukemia, in the assay on RXF 393 renal and with MDA-MB-435 was greater than 100 µM throughout. Also, the TGI in the assay on HT29 colon, in the assay with SK-OV-3 ovarian, with DU-145 prostate and in the assay with SK-MEL-2 melanoma was greater than 100 µM in each case.

Take `COC(=O)c1ccc(C)cc1C1CN=NC12Cc1cccc(C)c1C2=O` (stereo not drawn): the TGI in the assay with NCI-H226 lung was 73.6 µM; in the assay on ACHN renal, greater than 100 µM; in the assay with IGROV1 ovarian, greater than 100 µM; in the assay with RPMI-8226 leukemia it was 49.8 µM; with RXF 393 renal, greater than 100 µM; with MDA-MB-435, 37.9 µM. Further, the TGI in the assay with HT29 colon was greater than 100 µM; in the assay on SK-OV-3 ovarian it was greater than 100 µM; in the assay with DU-145 prostate, greater than 100 µM; in the assay with SK-MEL-2 melanoma it was 63.8 µM.

On to `CC(C)=CC(=O)OC1C2C(C)=CC(=O)C(O)C2(C)C2C3(O)OCC24C(CC(=O)OC14)C(C)C3O` (stereo not drawn), for which the GI50 with NCI-H226 lung was 0.02 µM; with IGROV1 ovarian, 0.02 µM; in the assay on RPMI-8226 leukemia, 0.02 µM; in the assay with RXF 393 renal it was 0.0339 µM; in the assay with HT29 colon, 0.0302 µM; with SK-OV-3 ovarian, 0.549 µM. For the same compound, the GI50 with DU-145 prostate is 0.0225 µM; in the assay on SK-MEL-2 melanoma it was 0.025 µM. Besides, the TGI in the assay with ACHN renal is 0.443 µM; in the assay on RPMI-8226 leukemia, 0.028 µM and 0.0291 µM; in the assay with RXF 393 renal, 0.0732 µM and 0.131 µM; in the assay on MDA-MB-435 it was 0.0103 µM; in the assay with HT29 colon, 0.0449 µM and 0.0146 µM and 0.137 µM; with SK-OV-3 ovarian it was 0.709 µM and 3.74 µM. The TGI in the assay with DU-145 prostate is 0.0173 µM and 0.141 µM; in the assay with SK-MEL-2 melanoma it was 0.0723 µM and 0.0279 µM and 0.0695 µM.

As for `COC1(C)CCC(OS(C)(=O)=O)CO1` (stereo not drawn), the TGI with NCI-H226 lung, with ACHN renal, with IGROV1 ovarian, in the assay on RPMI-8226 leukemia, in the assay on RXF 393 renal and in the assay on MDA-MB-435 was greater than 100 µM in each case. Besides, the TGI with HT29 colon, with SK-OV-3 ovarian, with DU-145 prostate and in the assay on SK-MEL-2 melanoma was greater than 100 µM in each case.

Take `CC(C)(C)OC(=O)NCC(c1c[nH]c2ccccc12)c1c[nH]c2ccccc12`: the TGI with NCI-H226 lung is 44 µM; in the assay on ACHN renal it was greater than 100 µM; in the assay on IGROV1 ovarian it was 26.3 µM; in the assay on RPMI-8226 leukemia it was 22.2 µM; with RXF 393 renal, 17.7 µM; in the assay with MDA-MB-435, 31.7 µM. In addition, the TGI in the assay on HT29 colon worked out at 29.8 µM; with SK-OV-3 ovarian, 33.5 µM; in the assay with DU-145 prostate, 29 µM; with SK-MEL-2 melanoma, 32.9 µM.

Take `Cc1cc2ccccc2oc(=O)/c1=N\Nc1ccccc1`: the TGI in the assay on NCI-H226 lung is greater than 100 µM; with ACHN renal, greater than 100 µM; with IGROV1 ovarian, greater than 100 µM; in the assay with RPMI-8226 leukemia, greater than 100 µM; with RXF 393 renal, 88.4 µM; in the assay with MDA-MB-435 it was greater than 100 µM. Further, the TGI in the assay with HT29 colon was greater than 100 µM; in the assay on SK-OV-3 ovarian, 62.8 µM; in the assay on DU-145 prostate it was greater than 100 µM; in the assay on SK-MEL-2 melanoma, greater than 100 µM.

Consider `C[C@]12CC[C@H]3[C@@H](CC=C4C[C@@H](O)CC[C@@]43C)[C@@H]1C/C(=C\c1ccc([N+](=O)[O-])cc1)[C@@H]2O`, for which the TGI in the assay with NCI-H226 lung is 55.2 µM; with ACHN renal it was 24.4 µM; with IGROV1 ovarian, greater than 100 µM; with RPMI-8226 leukemia it was greater than 100 µM; with RXF 393 renal, 21.4 µM; with MDA-MB-435, greater than 100 µM. For the same compound, the TGI was 20.6 µM in the assay with HT29 colon, 28.1 µM in the assay on SK-OV-3 ovarian, 23 µM in the assay with DU-145 prostate and 52.9 µM in the assay with SK-MEL-2 melanoma.
